Results from patent US11891373B2, “Crystalline forms of 1-((2R,4R)-2-(1H-benzo[d]imidazol-2-yl)-1-methylpiperidin-4-yl)-3-(4-cyanophenyl)urea maleate” (priority 2015, dated 2024).
Where a name gives a salt, the structure may show the parent alone.

What was measured:
Assay type in all cases: physicochemical
[1] = Comparative thermal stability by Differential Scanning Calorimetry (DSC); details: 25° C. to 250° C. at 10° C./min, dry nitrogen purge
Procedure: Comparative thermal stability data was generated for glasdegib dihydrochloride monohydrate (diHCl.H2O) and glasdegib maleate (Form 1). Differential Scanning calorimetry (DSC) measurements were performed with Discovery DSC (TA instruments) equipped with a refrigerated cooling accessory. All the experiments were performed in standard/Tzero aluminum pans. The cell constant was determined using indium and temperature calibration was performed using indium and tin as standards. All the measurements were done under continuous dry nitrogen purge (50 mL/min). Approximately 2-5 mg of solid sample was weighed into a standard/Tzero aluminum pan, sealed non-hermetically and heated from 25° C. to 250° C. at 10° C./min heating rate. The experimental data were analyzed using commercially available software (TA Universal Analysis 2000/Trios software, TA Instruments).

[2] = Chemical stability of tablet cores (5% drug loading), open dish, HPLC/Purity analysis; details: 5% active drug loading; for % -(2S,4R)-Epimer 6 weeks @ 50° C./75% RH: open dish
Procedure: Comparative chemical and physical stability data was generated for tablet cores comprising glasdegib dihydrochloride monohydrate (diHCl.H2O) and glasdegib maleate (Form 1) stored at 50° C./75% RH for 6 weeks. The tablet cores were prepared by dry granulation processing in a formulation composition comprising microcrystalline cellulose, dicalcium phosphate, sodium starch glycolate and magnesium stearate at an active drug loading level of 5%. The tablet cores were stored in open dish (no packaging) orientation in a 50° C./75% RH chamber and analyzed after 6 weeks of storage. The analytical testing included HPLC/Purity analysis and solid state NMR (for solid form).
The primary degradation product monitored is the epimeric 1-((2S,4R)-2-(1H-benzo[d]imidazol-2-yl)-1-methylpiperidin-4-yl)-3-(4-cyanophenyl)urea, which has the structure: […]

[3] = Accelerated 21-day stability study of tablets, shelf-life prediction from (2S,4R)-epimer formation; details: 60 cc HDPE bottle, 30 count tablets, 25° C./60% RH, epimer limit NMT 0.5%
Procedure: See Waterman et al., Pharmaceutical Research, 24(4): 780-790 (2007). The tablets were stored in open glass bottles and exposed to various temperature, humidities and durations.
The recommended packaging for the glasdegib dihydrochloride monohydrate tablets is HDPE/IS Bottle, with desiccant. The labeled storage condition of this product is 15-25° C.
The recommended packaging for the glasdegib maleate tablets is HDPE/IS Bottle and no desiccant is required. The labeled storage condition of this product is 15-25° C.

| Structure (SMILES) | Thermal Stability (stable up to) [1] | % -(2S,4R)-Epimer 6 weeks @ 50° C./75% RH [2] | shelf-life predicted, with desiccant ([3]; with desiccant) | shelf-life predicted, stored without desiccant [3] | % -(2S,4R)-Epimer Initial Level ([2]; before storage) |
| --- | --- | --- | --- | --- | --- |
| CN1CC[C@@H](NC(=O)Nc2ccc(C#N)cc2)C[C@@H]1c1nc2ccccc2[nH]1 [Glasdegib dihydrochloride monohydrate] | Stable up to 50 °C | 2.75% | approximately 5 years | less than 2 years |  |
| CN1CC[C@@H](NC(=O)Nc2ccc(C#N)cc2)C[C@@H]1c1nc2ccccc2[nH]1.O=C(O)/C=C\C(=O)O [Glasdegib maleate (Form 1), 1-((2R,4R)-2-(1H-benzo[d]imidazol-2-yl)-1-methylpiperidin-4-yl)-3-(4-cyanophenyl)urea maleate] | Stable up to 207 °C | 0.55% |  | more than 6 years | 0.024% |
